Patent publication US12285434B2, “Therapeutic, preventive, or improvement agent for inflammatory disease and allergic disease” (The University of Tokyo, priority 2018, dated 2025)

Legend:
anaphylaxis model mice = experiment: Histamine-induced anaphylaxis: blood pressure and body temperature; assay type: in vivo, mouse (C57BL/6); settings: 50 μg/kg intravenously 15 minutes before histamine 50 mg/kg
Protocol: Histamine (50 mg/kg) lysed in a physiological saline solution was intravenously administered to C57BL/6 strain mice (male, 8 to 12 weeks old) to prepare anaphylaxis model mice (hereinafter, sometimes referred to as “anaphylaxis group”). […] L-NAME is an NO synthesis inhibitor. As indices of anaphylactic symptoms, a body temperature decrease and a blood pressure decrease were observed.

[1] = tested on: DSS-induced colitis model mice; experiment: DSS-induced colitis: histologic score and colon edema (wet/dry weight ratio); assay type: in vivo, mouse (C57BL/6); settings: Day 14; 50 μg/kg/day intraperitoneally on Days 9, 11 and 13
Excerpt: (§1) C57BL/6 strain mice (male, 8 to 12 weeks old) were fed with water containing 2% dextran sodium sulfate (manufactured by MP Bio, hereinafter sometimes referred to as “DSS”) for 4 days to prepare colitis model mice (hereinafter, sometimes referred to as “colitis group” in Examples 7 to 10). The mice taken with DSS for 4 days were fed with normal water from Day 5. The DSS intake start date was defined as Day 1 of the test, and the day before the DSS intake start date was defined as Day 0 of the test. In addition, a group in which C57BL/6 strain mice (male, 8 to 12 weeks old) were fed with normal water was defined as a “healthy group” (the same applies to Examples 8 to 10).
(§2) To investigate the role of 5,6-DiHETE in the healing phase, the colitis model mice prepared in Example 7(1) were intraperitoneally injected with 5,6-DiHETE (manufactured by Cayman Chemical) (50 μg/kg/day) or HC-067047 (manufactured by Cayman Chemical) (1 mg/kg/day) on Days 9, 11 and 13 of the test (hereinafter, sometimes referred to as “5,6-DiHETE-administered group” and “HC-067047-administered group,” respectively, in Examples 9 and 10). HC-067047 is known to inhibit an increase of calcium ion concentration in endothelial cells.
Distal colon sections on Day 14 of the test in the healthy group, colitis group, 5,6-DiHETE-administered group and HC-067047-administered group were fixed in 4% paraformaldehyde for 24 hours, embedded in paraffin and cut into 2 μm-thick sections. Hematoxylin staining and eosin staining of these sections were performed according to a conventional method. The histologic score was then decided according to the description of Kruschewski M. et al., Digestive Diseases and Sciences, 46: 2336-2343 (2001) to evaluate the colitis severity.
The wet/dry weight ratio was used as an index of colon edema (Rachmilewitz D. et al., Gastroenterology, 97: 326-337(1989)). Specifically, the distal colon was collected, and the wet weight was measured. The distal colon was then dried at 60 C for 24 hours, and, thereafter, the dry weight was measured.

ear vessels of the mice = experiment: In vivo microscopy of ear vessels: FITC-dextran leakage and vascular diameter after histamine; parameters: species or system mouse
Protocol: To visualize the ear vessels of the mice, 70 kDa fluorescein isothiocyanate-dextran (10 mg/kg, manufactured by Sigma-Aldrich) was injected intravenously. Then, immediately after the administration of fluorescein isothiocyanate-dextran, 5,6-DiHETE (0.1 μg) was administered by instillation (percutaneously administered) as a pretreatment, and this group of mice was designated as a “5,6-DiHETE-administered group.” As a control group, a group of mice not administered with 5,6-DiHETE was designated as a “[…]-administered group”. Then, 15 minutes after the administration by instillation, histamine (400 μg) was administered by instillation (percutaneously administered) into the ventral surface of the ears for both the groups. Next, the mice were placed on the stage of a microscope confocal microscope (ECLIPSE Ti with C1 confocal system, manufactured by Nikon Corporation), and their body temperatures were maintained at 37° C. Dextran leakage and vascular diameter in the ears were monitored every minute in a period from 0 to 30 minutes after the administration of histamine using EZ-C1 Free Viewer (manufactured by Nikon Corporation), and the dextran leakage, artery diameter and vein diameter were quantified according to the description of Omori, K. et al., British Journal of Pharmacology, 171:4879-4889 (2014). It is known that smooth muscle contraction reduces the downstream blood flow and limits the vascular leakage, whereas smooth muscle relaxation (increase of vascular diameter) increases the blood flow, thereby leading to vascular leakage.

[2] = tested on: histamine-induced vascular permeability in mouse ears; experiment: Modified Miles assay: histamine-induced vascular hyperpermeability (Evans blue extravasation); assay type: in vivo, mouse (C57BL/6); settings: pretreatment 0.1 μg/ear, 15 minutes, before 400 μg histamine
Protocol: Fifteen (15) minutes after the intracutaneous injection, a vehicle (80% acetone) or histamine (400 μg, manufactured by Molecular Probes) was percutaneously administered to the ventral surface of the ears. To evaluate vascular permeability, Evans blue (50 mg/kg, manufactured by Sigma) was injected intravenously 5 minutes after the administration of histamine. The mice were then euthanized by cervical dislocation 30 minutes after the injection of Evans blue. The ears were dissected, dried at 55° C., and weighed. Extravasated Evans blue present in the ears was extracted in formamide (manufactured by Molecular Probes), and quantified spectrophotometrically (manufactured by PerkinElmer Japan Co., Ltd.) at a wavelength of 610 nm.

[3] = tested on: DSS-induced colitis model mice; experiment: DSS-induced colitis: colitis severity (body weight, fecal score, colon length); assay type: in vivo, mouse (C57BL/6); settings: Day 14; 50 μg/kg/day intraperitoneally on Days 9, 11 and 13
Excerpt: as §1
In order to evaluate colitis severity, the fecal condition was evaluated and the body weight was measured daily for the colitis model mice and healthy group prepared in the above item (1). The fecal condition was evaluated based on the following five-grade fecal scores. Specifically, the fecal scores were 0: normal; 1: soft but still formed; 2: very soft; 3: diarrhea; and 4: bloody feces. In addition, the colon length was measured as an index of the colitis severity.
as §2
The colitis severity was determined according to the index and criteria described in Example 7(2).

[4] = 0.1 μg pretreatment 15 minutes before histamine 400 μg

CC/C=C\C/C=C\C/C=C\C/C=C\C[C@@H](O)[C@@H](O)CCCC(=O)O (racemic) [5,6-DiHETE, (±) 5,6-dihydroxy-8Z,11Z,14Z,17Z-eicosatetraenoic acid]
blood pressure (anaphylaxis model mice): 93.3±4.9 mmHg | body temperature decrease (anaphylaxis model mice): −0.2±0.1 °C | colon edema, wet/dry weight ratio [1]: 5.2±0.2 | histologic score of colitis [1]: 3.3±0.5 | histamine-induced increase of vein diameter (ear vessels of the mice; [4]): not inhibited | mean fluorescence intensity of FITC-dextran extravasation vs histamine-administered group (ear vessels of the mice; [4]): significantly decreased | artery diameter as compared with arteries nonstimulated with histamine (ear vessels of the mice; 0.1 μg pretreatment by instillation 15 minutes before histamine 400 μg): 132±15% | dye extravasation (Evans blue) in ear [2]: 0.06 ± 0.02 µg/mg | colon length [3]: 6.4±0.1 cm | fecal score [3]: decreased to the normal level | relative body weight, of the initial weight [3]: 115.2±2.5%
